Data reported in patent US12721870B2 (priority 2021, dated 2026).
Several values for one entry are separate records, joined by “and”; a condition that tells them apart may be missing. Identical values can stand only once.

Tests used:
[1] = tested on: cyclophosphamide (CPP)-induced animal model; test: Thymus and spleen weight in CPP-induced animal model; assay type: in vivo; settings: mice
Procedure: To confirm the immunity-enhancing efficacy of the V5 strain in a cyclophosphamide (CPP)-induced animal model, tests were performed for each concentration of the V5 strain. Cyclophosphamide (CPP) is an anticancer drug widely used for all types of cancers, sarcomas, leukemia, and malignant lymphoma, and is a non-specific immunosuppressant. […] When CPP suppresses immunity, the weight of the thymus, an immune tissue, and the number of thymocytes are reduced, and the spleen weight is increased as a result of a defense mechanism against immunosuppression.
To confirm the effect of the V5 strain on the weight of the thymus and spleen of a CPP-induced animal model, the weight of the thymus and spleen of the animal model was measured.

splenocytes = test: Cell viability of splenocytes from CPP-induced animal model (WST); assay type: in vivo; settings: mice, 150 mg/kg CPP only, splenocytes incubated 48 hours
Procedure: To measure the cell viability of splenocytes, a collection of cells involved in various cellular immunity, splenocytes from each mouse were seeded in a 96-well plate at 1×10^4 cells/well and then incubated in a 37° C. CO2 incubator for 48 hours. Next, the splenocytes were treated with WST to measure cell viability.

[2] = tested on: Th1, Th2, Th17, and Treg cells; test: T cell subset marker mRNA in splenocytes of CPP-induced animal model (qPCR); assay type: in vivo; settings: mice, 150 mg/kg CPP only
Procedure: In addition, RNA was isolated from the splenocytes at 2×10^6 cells/sample using a TRIZOL® reagent (Thermo, US), and cDNA was synthesized using ACCUPOWER® RT PreMix & Master Mix (Bioneer, KO). To confirm changes in differentiation of Th1, Th2, Th17, and Treg cells, T cell subsets, using the synthesized cDNA and ACCUPOWER® GreenStar™ qPCR PreMix (Bioneer, KO), expression levels of TBX21, GATA3, RORγt, IL-17A, Foxp3, and CTLA-4 mRNA in these cells were measured.

[3] = tested on: cyclophosphamide (CPP)-induced animal model; test: Antibodies in blood of CPP-induced animal model (ELISA); assay type: in vivo; settings: mice, 150 mg/kg CPP only, serum ELISA
Procedure: (§1) The blood of a CPP-induced animal model was reacted at room temperature for two hours and then centrifuged at 4000 rpm for 10 minutes to isolate serum. The secretion amounts of IgG, IgA, and IgM were measured from the isolated serum using an ELISA kit (Thermo, US).

[4] = tested on: cyclophosphamide (CPP)-induced animal model; test: Cytokines in blood of CPP-induced animal model (ELISA); assay type: in vivo; settings: mice, 150 mg/kg CPP only, serum ELISA; tendency
Procedure: as §1
In addition, enzyme-linked immunosorbent assay (ELISA) for IL-6, IL-2, IL-10, and IL-4 was performed using the serum.

[5] = tested on: natural killer cells (NK cells); test: Cytotoxicity of NK cells from CPP-induced animal model (LDH, YAC-1 cells); settings: mice, 150 mg/kg CPP only, YAC-1 cells: splenocytes 1:50, four hours
Procedure: The test was performed in the following four groups with seven mice per group: a normal control (NC), a group treated with 150 mg/kg of CPP, a group treated with 1×10^9 CFU/mouse (10^9 CFU) ATG-V5 (V5 strain), and a group treated with 1×10^10 CFU/mouse (V5 10^10 CFU) ATG-V5 (V5 strain).
To measure the cytotoxicity of natural killer cells (NK cells), the spleen was isolated from a CPP-induced animal model, and then the tissue was ground to obtain splenocytes. Next, the splenocytes were mixed with YAC-1 cells in a ratio of the YAC-1 cells: the splenocytes of 1:50 and then incubated in a CO2 incubator at 37° C. for four hours. The amount of LDH was measured using an LDH-cell cytotoxicity assay kit.

Question: For `O=P1(N(CCCl)CCCl)NCCCO1` (stereo not drawn) [CPP, cyclophosphamide], which Thymus weight ([1]; group treated with 150 mg/kg of CPP only (normal control 0.061 g), 150 mg/kg) is on record?
Answer: 0.03 g and 0.031 g

Question: What about the Spleen weight ([1]; group treated with 150 mg/kg of CPP only (normal control 0.105 g)) of the same molecule?
Answer: 0.170 g

Question: And the “Cell viability of splenocytes” value (splenocytes)?
Answer: 99.98%

Question: And the “Overall number of T cell subsets (mRNA in splenocytes)” value [2]?
Answer: suppressing

Question: What about the “Secretion amount of IgA in the blood” value [3] of the same molecule?
Answer: reduced

Question: What about the “Secretion amount of IgG in the blood” value [3] of the same molecule?
Answer: reduced

Question: What about the “Secretion amount of IgM in the blood” value [3] of the same molecule?
Answer: failed to cause changes

Question: What about the “Cytokines in the blood (IL-6, IL-2, IL-10, IL-4)” value [4] of the same molecule?
Answer: reduced

Question: And the “Cytotoxicity of NK cells” value [5]?
Answer: 144%
